From patent US6737383B1, “Herbicidal oxadiazolidines” (priority 1999, dated 2004)

Tests used:
pigweed = experiment: Test B pre/postemergence pigweed; type: in vivo, Amaranthus retroflexus
Summary of the method: (§1)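 Response is a visual 0-to-10 score relative to untreated plants, where 0 means no effect and 10 means complete control, taken twelve to sixteen days after application. Treatments went onto soil at planting and onto foliage of 1- to 4-leaf plants, using a surfactant-containing non-phytotoxic solvent.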

rape = experiment: Test B pre/postemergence rape; type: in vivo, Brassica napus
Summary of the method: as §1

sugar beet = experiment: Test B pre/postemergence sugar beet; type: in vivo, Beta vulgaris; details: for Plant response rating, Sugarbeets: Rate 250 g/ha
Summary of the method: as §1

bermuda-grass = experiment: Test D bermudagrass; type: in vivo, Cynodon dactylon; details: Preemergence, 0 to 100 scale
Summary of the method: (§2)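 Greenhouse pots, sandy loam, single species per pot. Preemergence tests: soil-surface application ≤1 day after planting. Compound formulated in non-phytotoxic solvent with surfactant. Visual rating 14–21 DAT, scale 0–100.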

itchgrass = experiment: Test D itchgrass; type: in vivo, Rottboellia exaltata; details: Preemergence, 0 to 100 scale
Summary of the method: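 Scoring used a 0–100 visual injury scale, with 0 meaning no effect and 100 complete control, assessed 14–21 days after application alongside untreated pots. Preemergence treatments went onto sandy loam surfaces of separately potted seeds within a day of sowing.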

pitted morningglory = experiment: Test D pitted morningglory; type: in vivo, Ipomoea lacunosa; details: Preemergence, 0 to 100 scale
Summary of the method: as §2

Spanishneedles = experiment: Test D Spanishneedles; type: in vivo, Bidens bipinnata; details: Preemergence, 0 to 100 scale
Summary of the method: as §2

winter wheat [1] = experiment: Test E winter wheat; type: in vivo, Triticum aestivum; details: Postemergence
Summary of the method: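 Visually scored herbicidal effect relative to untreated plants, taken ~21 to 28 days post-application; compound in solvent with surfactant; postemergence sprays at the 1- to 4-leaf stage.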

Green foxtail [2] = experiment: Test D green foxtail; type: in vivo
Summary of the method: as §2

blackgrass = experiment: Test E blackgrass; type: in vivo, Alopecurus myosuroides; details: Preemergence
green foxtail [3] = experiment: Test E green foxtail; type: in vivo, Setaria viridis; details: Preemergence
Italian ryegrass = experiment: Test E Italian ryegrass; type: in vivo, Lolium multiflorum; details: Preemergence
winter wheat [4] = experiment: Test E winter wheat; type: in vivo, Triticum aestivum; details: Preemergence
wild oat = experiment: Test E wild oat; type: in vivo, Avena fatua; details: Preemergence
winter barley = experiment: Test E winter barley; type: in vivo, Hordeum vulgare; details: Preemergence
[5] = Postemergence, Rate 62 g/ha, scale 0 to 10, 0 is no effect, 10 is complete control
[6] = Postemergence, Rate 125 g/ha, scale of 0 to 10 where 0 is no effect and 10 is complete control
[7] = Preemergence, Rate 62 g/ha, scale 0 to 10 (0 no effect, 10 complete control)
[8] = Preemergence, Rate 125 g/ha, scale 0 to 10 (0 no effect, 10 complete control)
[9] = Preemergence, Rate 250 g/ha, scale of 0 to 10 where 0 is no effect and 10 is complete control
[10] = Preemergence, Rate 500 g/ha, scale 0 (no effect) to 10 (complete control)
[11] = Rate 500 g/ha, Postemergence, scale 0 to 10, 0 no effect, 10 complete control
[12] = Rate 16 g/ha, 0 no injury, 100 complete control
[13] = Rate 32 g/ha, 0 no injury, 100 complete control
[14] = Rate 64 g/ha, 0 no injury, 100 complete control
[15] = Rate 125 g/ha, 0 no injury, 100 complete control
[16] = Rate 31 g/ha, 0 to 100 scale, 0 no effect, 100 complete control
[17] = Rate 64 g/ha, Preemergence; 0 to 100 scale, 0 no injury, 100 complete control
[18] = Rate 125 g/ha, Preemergence; 0 to 100 scale, 0 no injury, 100 complete control
[19] = Rate 62 g/ha, 0 to 100 scale, 0 no effect, 100 complete control
[20] = Rate 125 g/ha, 0 to 100 scale (0 no effect, 100 complete control)

C=CCn1c(=O)on(C(=O)N(c2ccccc2)C(C)C)c1=O [Compound 93]
Redroot pigweed plant response rating (pigweed; [5]): 2 | Redroot pigweed plant response rating (pigweed; [6]): 4 | Redroot pigweed plant response rating (pigweed; [7]): 9 | Plant response rating, Redroot pigweed (pigweed; [8]): 8 | Plant response rating, Redroot pigweed (pigweed; [9]): 10 | Redroot pigweed plant response rating (pigweed; [10]): 10 | Plant response rating, Redroot pigweed (pigweed; Rate 250 g/ha, Postemergence, scale 0 to 10, 0 is no effect, 10 is complete control): 7 | Redroot pigweed plant response rating (pigweed; [11]): 7 | Rape plant response rating (rape; [5]): 2 | Rape plant response rating (rape; [6]): 3 | Rape plant response rating (rape; Postemergence, Rate 250 g/ha, scale 0 to 10, 0 no effect, 10 complete control): 4 | Rape plant response rating (rape; [7]): 3 | Plant response rating, Rape (rape; [8]): 7 | Plant response rating, Rape (rape; [9]): 8 | Rape plant response rating (rape; [10]): 10 | Rape plant response rating (rape; [11]): 5 | Sugarbeets plant response rating (sugar beet; [5]): 2 | Sugarbeets plant response rating (sugar beet; [6]): 3 | Sugarbeets plant response rating (sugar beet; [7]): 6 | Sugarbeets plant response rating (0 to 10 scale) (sugar beet; Preemergence, Rate 125 g/ha, 0 is no effect, 10 is complete control): 7 | Plant response rating, Sugarbeets (sugar beet; Preemergence, scale of 0 to 10 where 0 is no effect and 10 is complete control): 8 | Sugarbeets plant response rating (sugar beet; [10]): 9 | Plant response rating, Sugarbeets (sugar beet; Postemergence, scale 0 to 10, 0 is no effect, 10 is complete control): 3 | Sugarbeets plant response rating (sugar beet; [11]): 5 | Plant response rating, Bermudagrass (bermuda-grass; [12]): 80 | Plant response rating, Bermudagrass (bermuda-grass; [13]): 80 | Plant response rating, Bermudagrass (bermuda-grass; [14]): 90 | Plant response rating, Bermudagrass (bermuda-grass; [15]): 100 | Plant response rating, Bermudagrass (bermuda-grass; Rate 250 g/ha): 100 | Plant response rating, Bermudagrass (bermuda-grass; Rate 500 g/ha): 100 | Plant response rating, Itchgrass (itchgrass; [12]): 50 | Plant response rating, Itchgrass (itchgrass; [13]): 60 | Plant response rating, Itchgrass (itchgrass; [14]): 60 | Plant response rating, Itchgrass (itchgrass; [15]): 75 | Plant response rating, Itchgrass (itchgrass; Rate 250 g/ha): 90 | Plant response rating, Itchgrass (itchgrass; Rate 500 g/ha): 100 | Plant response rating, P. morninglory (pitted morningglory; [12]): 0 | Plant response rating, P. morninglory (pitted morningglory; [13]): 0 | Plant response rating, P. morninglory (pitted morningglory; [14]): 0 | Plant response rating, P. morninglory (pitted morningglory; [15]): 0 | Plant response rating, P. morninglory (pitted morningglory; Rate 250 g/ha): 0 | Plant response rating, P. morninglory (pitted morningglory; Rate 500 g/ha): 20 | Plant response rating, Spanishneedles (Spanishneedles; [12]): 0 | Plant response rating, Spanishneedles (Spanishneedles; [13]): 0 | Spanishneedles plant response rating (Spanishneedles; [14]): 0 | Spanishneedles plant response rating (Spanishneedles; [15]): 10 | Plant response rating, Spanishneedles (Spanishneedles; Rate 500 g/ha): 45 | Plant response rating, Wheat (winter) (winter wheat [1]; [16]): 0 | Plant response rating, Wheat (winter) (winter wheat [1]; Rate 62 g/ha, 0 to 100 scale): 20 | Plant response rating, Wheat (winter) (winter wheat [1]; Rate 125 g/ha, 0 to 100 scale): 65 | Plant response rating, Wheat (winter) (winter wheat [1]; Rate 250 g/ha, 0 to 100 scale (0 no effect, 100 complete control)): 0 | Plant response rating, Green foxtail (Green foxtail [2]; Preemergence; Rate 16 g/ha; 0 to 100 scale, 0 no injury, 100 complete control): 65 | Plant response rating, Green foxtail (Green foxtail [2]; Preemergence; Rate 32 g/ha; 0 to 100 scale, 0 no injury, 100 complete control): 75 | Plant response rating, Green foxtail (Green foxtail [2]; Rate 16 g/ha; Preemergence; 0 to 100 scale, 0 no injury, 100 complete control): 65 | Plant response rating, Green foxtail (Green foxtail [2]; Rate 32 g/ha; Preemergence; 0 to 100 scale, 0 no injury, 100 complete control): 0 | Green foxtail plant response rating (Green foxtail [2]; [17]): 100 | Plant response rating, Green foxtail (Green foxtail [2]; [17]): 100 | Green foxtail plant response rating (Green foxtail [2]; [18]): 100 | Plant response rating, Green foxtail (Green foxtail [2]; [18]): 100 | Plant response rating, Green foxtail (Green foxtail [2]; Rate 250 g/ha; Preemergence; 0 to 100 scale): 100 | Plant response rating, Green foxtail (Green foxtail [2]; Rate 500 g/ha, Preemergence; 0 to 100 scale): 100 | Plant response rating, Blackgrass (blackgrass; [16]): 0 | Plant response rating, Blackgrass (blackgrass; [19]): 50 | Plant response rating, Blackgrass (blackgrass; [20]): 70 | Plant response rating, Blackgrass (blackgrass; Rate 250 g/ha, 0 to 100 scale): 75 | Plant response rating, Green foxtail (green foxtail [3]; [16]): 30 | Plant response rating, Green foxtail (green foxtail [3]; [19]): 70 | Plant response rating, Green foxtail (green foxtail [3]; [20]): 80 | Plant response rating, I. Ryegrass (Italian ryegrass; [16]): 30 | Plant response rating, I. Ryegrass (Italian ryegrass; [19]): 50 | Plant response rating, I. Ryegrass (Italian ryegrass; [20]): 70 | Plant response rating, I. Ryegrass (Italian ryegrass; Rate 250 g/ha, 0 to 100 scale): 100 | Plant response rating, Wheat (winter) (winter wheat [4]; [16]): 20 | Plant response rating, Wheat (winter) (winter wheat [4]; [19]): 40 | Plant response rating, Wheat (winter) (winter wheat [4]; [20]): 40 | Plant response rating, Wheat (winter) (winter wheat [4]; Rate 250 g/ha, 0 to 100 scale): 100 | Plant response rating, Wild oat (wild oat; [16]): 40 | Plant response rating, Wild oat (wild oat; [19]): 50 | Plant response rating, Wild oat (wild oat; [20]): 60 | Plant response rating, Barley (winter) (winter barley; [16]): 20 | Plant response rating, Barley (winter) (winter barley; [19]): 50 | Plant response rating, Barley (winter) (winter barley; [20]): 50 | Plant response rating, Barley (winter) (winter barley; Rate 250 g/ha, 0 to 100 scale): 50
